Measurements as given in patent US10662205B2, “Cyclic boronic acid ester derivatives and therapeutic uses thereof” (priority 2014, dated 2020).

Key:
ECL1002 [1] = test: Tigemonam MIC of test strain
ec302 (TEM-10) [2] = test: Tigemonam MIC of test strain
KP1005 (CTX-M-14) [3] = test: Tigemonam MIC of test strain
EC1010 (CMY-6) [4] = test: Tigemonam MIC of test strain
KP1010 (SHV-12) [5] = test: Tigemonam MIC of test strain
KP1009 (CTX-M-15) [6] = test: Tigemonam MIC of test strain
ec308 (SHV-5) [7] = test: Tigemonam MIC of test strain
KP1010 (SHV-12) [8] = test: Aztreonam MIC of test strain; type: cell-based
ec302 (TEM-10) [9] = test: Aztreonam MIC of test strain; type: cell-based
EC1010 (CMY-6) [10] = test: Aztreonam MIC of test strain; type: cell-based
KP1004 (KPC-2) [11] = test: organism not typed; type: cell-based; conditions: read-out: Aztreonam MIC
KP1005 (CTX-M-14) [12] = test: organism not typed; type: cell-based; conditions: read-out: Aztreonam MIC
KP1009 (CTX-M-15) [13] = test: organism not typed; type: cell-based; conditions: read-out: Aztreonam MIC
ec308 (SHV-5) [14] = test: Aztreonam MIC of test strain; type: cell-based
KP1086 (OXA-48) [15] = test: Biapenem MIC of test strain; conditions: read-out: Biapenem MIC
PAM1154/KPC-2 [16] = test: Biapenem MIC; type: cell-based; conditions: Pseudomonas aeruginosa; PAM1154 with KPC-2 plasmid
Protocol: (§1) Efflux of BLIs from Pseudomonas aeruginosa by the MexAB-OprM efflux pump was also evaluated. The plasmid expressing the gene encoding KPC-2 was introduced into two strains of P. aeruginosa, PAM1032 and PAM1154 that overexpressed or lacked MexAB-OprM, respectively. Due to expression of KPC-2 both strains became resistant to biapenem. […] Potency of BLIs to potentiate biapenem in these strains was determined. […] The ratio of MPC64 values for each BLI in PAM1032/KPC-2 (efflux proficient) and PAM1154/KPC-2 (efflux deficient) was determined to generate the Efflux Index (EI).

PAM1032/KPC-2 [17] = test: Biapenem MIC; type: cell-based; conditions: Pseudomonas aeruginosa; PAM1032 with KPC-2 plasmid
Protocol: as §1

KP1004 (KPC-2) [18] = test: Biapenem MIC of test strain; conditions: read-out: Biapenem MIC
ec302 (TEM-10) [19] = test: Aztreonam potentiation (MPC@4); type: cell-based; conditions: aztreonam 4 μg/mL
KP1086 (OXA-48) [20] = test: Biapenem potentiation (MPC@1); conditions: biapenem 1 μg/mL
KP1009 (CTX-M-15) [21] = test: Aztreonam potentiation (MPC@4); type: cell-based; conditions: aztreonam 4 μg/mL
CMY-2 = CMY-2 (Klebsiella pneumoniae, UniProt Q48434); test: Inhibition of nitrocefin cleavage by purified enzyme (Ki); type: biochemical; conditions: nitrocefin reporter substrate; 10 min preincubation; read-out: Ki CMY-2, NCF
Sequence of CMY-2 (Q48434 21-381, species assumed): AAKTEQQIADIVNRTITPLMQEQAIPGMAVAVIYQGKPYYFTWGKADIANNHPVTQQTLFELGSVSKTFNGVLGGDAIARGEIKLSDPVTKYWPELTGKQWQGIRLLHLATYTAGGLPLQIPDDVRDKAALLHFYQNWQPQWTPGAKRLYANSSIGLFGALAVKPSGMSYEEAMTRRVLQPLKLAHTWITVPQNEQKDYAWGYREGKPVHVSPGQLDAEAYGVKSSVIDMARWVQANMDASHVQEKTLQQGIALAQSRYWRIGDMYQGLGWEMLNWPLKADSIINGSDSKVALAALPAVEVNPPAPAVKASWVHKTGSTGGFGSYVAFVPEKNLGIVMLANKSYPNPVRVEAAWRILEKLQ
Protocol: (§2) Ki values of inhibition of purified class A, C and D enzymes were determined spectrophotometrically using nitrocefin as reporter substrate. Purified enzymes were mixed with various concentrations of inhibitors in reaction buffer and incubated for 10 min at room temperature. Nitrocefin was added and substrate cleavage profiles were recorded at 490 nm every 10 sec for 10 min. These experiments confirmed that the described compounds are inhibitors with a broad-spectrum of activity towards various β-lactamases.

KPC-2 = KPC-2 (Klebsiella pneumoniae, UniProt Q9F663); test: as above; type: biochemical; conditions: nitrocefin reporter substrate; 10 min preincubation; read-out: Ki KPC-2, NCF
Sequence of KPC-2 (Q9F663 25-293, looked up, species assumed): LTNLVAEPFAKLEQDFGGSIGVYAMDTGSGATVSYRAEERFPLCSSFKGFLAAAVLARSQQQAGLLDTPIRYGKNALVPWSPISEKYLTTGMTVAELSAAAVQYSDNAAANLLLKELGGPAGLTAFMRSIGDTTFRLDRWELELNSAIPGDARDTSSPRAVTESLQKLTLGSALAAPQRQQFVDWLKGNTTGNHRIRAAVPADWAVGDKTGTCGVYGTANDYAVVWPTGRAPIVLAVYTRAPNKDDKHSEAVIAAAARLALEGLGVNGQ
Protocol: as §2

OXA-48 = OXA-48 (Klebsiella pneumoniae, UniProt Q6XEC0); test: as above; type: biochemical; conditions: nitrocefin reporter substrate; 10 min preincubation; read-out: Ki OXA-48, NCF
Sequence of OXA-48 (Q6XEC0 23-265, looked up, species assumed): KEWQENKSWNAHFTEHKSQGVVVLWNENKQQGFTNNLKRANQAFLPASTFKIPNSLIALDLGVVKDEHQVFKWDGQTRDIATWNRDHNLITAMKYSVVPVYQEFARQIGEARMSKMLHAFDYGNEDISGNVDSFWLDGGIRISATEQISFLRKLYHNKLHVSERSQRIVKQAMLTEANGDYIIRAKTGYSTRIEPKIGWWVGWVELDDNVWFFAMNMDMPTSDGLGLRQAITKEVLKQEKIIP
Protocol: as §2

EC1010 (CMY-6) [22] = test: Aztreonam potentiation (MPC@4); type: cell-based; conditions: aztreonam 4 μg/mL
KP1005 (CTX-M-14) [23] = test: Aztreonam potentiation (MPC@4); type: cell-based; conditions: aztreonam 4 μg/mL
KP1010 (SHV-12) [24] = test: Aztreonam potentiation (MPC@4); type: cell-based; conditions: aztreonam 4 μg/mL
Oral pharmacokinetics = type: in vivo; conditions: rat, plasma; rats, single oral dose 30 mg/kg, n=3; read-out: Range of % Oral Bioavailability
Protocol: Several compounds were tested for their oral pharmacokinetics. Rats (n=3 per compound) were administered a single oral dose. Oral doses were administered as a bolus. Plasma (˜0.3 mL) samples were collected from each rat at designated time points up to 24 hours. Blood samples were centrifuged within 5 min of collection at 12000 g for 5 min to obtain plasma. The plasma samples were stored at −80° C. until analyzed. Data were analyzed using WinNonlin.

P99 = P99 (Enterobacter cloacae, UniProt P05364); test: biochemical; conditions: nitrocefin reporter substrate; 10 min preincubation; read-out: Ki P99, NCF
Sequence of P99 (P05364 21-381): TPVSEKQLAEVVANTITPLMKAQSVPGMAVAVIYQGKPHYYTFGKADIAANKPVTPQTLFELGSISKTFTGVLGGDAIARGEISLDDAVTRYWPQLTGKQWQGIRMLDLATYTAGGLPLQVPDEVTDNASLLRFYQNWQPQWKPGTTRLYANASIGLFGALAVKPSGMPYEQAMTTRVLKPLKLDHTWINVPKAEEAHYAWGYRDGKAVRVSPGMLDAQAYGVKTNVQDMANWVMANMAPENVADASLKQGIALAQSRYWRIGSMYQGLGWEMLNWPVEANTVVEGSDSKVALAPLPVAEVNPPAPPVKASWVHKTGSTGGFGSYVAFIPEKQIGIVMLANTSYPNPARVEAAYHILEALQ
Protocol: as §2, with “min.” for “min. These experiments confirmed that the described compounds are inhibitors with a broad-spectrum of activity towards various β-lactamases.”

PAM1154/KPC-2 [25] = test: Biapenem potentiation MPC64, efflux deficient strain; type: cell-based, Pseudomonas aeruginosa; parameters: unit not given here; conditions: efflux deficient (lacks MexAB-OprM); decrease biapenem MIC 64-fold, 32 to 0.5 μg/ml
Protocol: as §1

ECL1002 [26] = test: Aztreonam potentiation (MPC@4); type: cell-based; conditions: aztreonam 4 μg/mL
ec302 (TEM-10) [27] = test: Tigemonam potentiation (MPC@4); type: cell-based; conditions: tigemonam 4 μg/mL
KP1004 (KPC-2) [28] = test: Aztreonam potentiation (MPC@4); type: cell-based; conditions: aztreonam 4 μg/mL
KP1010 (SHV-12) [29] = test: Tigemonam potentiation (MPC@4); type: cell-based
SHV-12 = SHV-12 (Klebsiella pneumoniae, UniProt P0AD64, E235K/G234S/L31Q); test: Inhibition of nitrocefin cleavage by purified enzyme (Ki); type: biochemical
Sequence of SHV-12 (P0AD64 22-286 L31Q/G234S/E235K): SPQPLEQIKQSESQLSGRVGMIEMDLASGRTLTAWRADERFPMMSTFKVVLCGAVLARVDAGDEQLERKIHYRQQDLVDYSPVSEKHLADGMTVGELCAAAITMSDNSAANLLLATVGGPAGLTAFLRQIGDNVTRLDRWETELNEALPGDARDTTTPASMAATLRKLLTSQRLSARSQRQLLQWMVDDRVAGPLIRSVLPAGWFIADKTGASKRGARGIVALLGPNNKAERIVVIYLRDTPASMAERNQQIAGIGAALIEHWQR
Protocol: as §2, with “min.” for “min. These experiments confirmed that the described compounds are inhibitors with a broad-spectrum of activity towards various β-lactamases.”

CTX-M-14 = CTX-M-14 (Escherichia coli, UniProt Q9L5C7); test: as above; type: biochemical; conditions: nitrocefin reporter substrate; 10 min preincubation; read-out: Ki CTX-M-14, NCF
Sequence of CTX-M-14 (Q9L5C7 29-291): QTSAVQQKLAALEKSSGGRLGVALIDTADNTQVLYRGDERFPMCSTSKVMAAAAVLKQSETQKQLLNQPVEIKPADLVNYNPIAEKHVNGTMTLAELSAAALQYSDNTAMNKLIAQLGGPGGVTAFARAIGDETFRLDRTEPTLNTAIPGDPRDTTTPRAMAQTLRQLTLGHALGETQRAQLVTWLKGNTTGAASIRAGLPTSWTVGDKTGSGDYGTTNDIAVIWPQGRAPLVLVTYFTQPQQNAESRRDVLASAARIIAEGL
Protocol: as §2, with “min.” for “min. These experiments confirmed that the described compounds are inhibitors with a broad-spectrum of activity towards various β-lactamases.”

ec308 (SHV-5) [30] = test: Tigemonam potentiation (MPC@4); type: cell-based; conditions: tigemonam 4 μg/mL
EC1010 (CMY-6) [31] = test: Tigemonam potentiation (MPC@4); type: cell-based; conditions: tigemonam 4 μg/mL; EC1010, CMY-6
ECL1002 [32] = test: Tigemonam potentiation (MPC@4); type: cell-based; conditions: tigemonam 4 μg/mL
PAM1032/KPC-2 [33] = test: Biapenem potentiation MPC64, efflux proficient strain; type: cell-based, Pseudomonas aeruginosa; parameters: unit not given here; conditions: efflux proficient (MexAB-OprM overexpressed); decrease biapenem MIC 64-fold, 32 to 0.5 μg/ml
Protocol: as §1

ec308 (SHV-5) [34] = test: Aztreonam potentiation (MPC@4); type: cell-based; conditions: aztreonam 4 μg/mL
KP1009 (CTX-M-15) [35] = test: Tigemonam potentiation (MPC@4); type: cell-based
KP1005 (CTX-M-14) [36] = test: Tigemonam potentiation (MPC@4); type: cell-based; conditions: tigemonam 4 μg/mL
KP1004 (KPC-2) [37] = test: Biapenem potentiation (MPC@1); conditions: biapenem 1 μg/mL

Question: With `CC1(C)[C@H](NC(=O)/C(=N\OCC(=O)O)c2csc(N)n2)C(=O)N1OS(=O)(=O)O` [Tigemonam] as the compound, how does the “Tigemonam MIC” value (ECL1002 [1]) read?
Answer: 32 µg/mL

Question: And the “Tigemonam MIC” value (ec302 (TEM-10) [2])?
Answer: >64 µg/mL

Question: What about the “Tigemonam MIC” value (KP1005 (CTX-M-14) [3]) of the same compound?
Answer: >64 µg/mL

Question: And the “Tigemonam MIC” value (EC1010 (CMY-6) [4])?
Answer: 16 µg/mL

Question: What about the “Tigemonam MIC” value (KP1010 (SHV-12) [5]) of the same compound?
Answer: >64 µg/mL

Question: What about the “Tigemonam MIC” value (KP1009 (CTX-M-15) [6]) of the same compound?
Answer: >64 µg/mL

Question: And the “Tigemonam MIC” value (ec308 (SHV-5) [7])?
Answer: >64 µg/mL

Question: For `C[C@H]1[C@H](NC(=O)/C(=N\OC(C)(C)C(=O)O)c2csc(N)n2)C(=O)N1S(=O)(=O)O` [Aztreonam], which MIC (KP1010 (SHV-12) [8]) is on record?
Answer: 64 µg/mL

Question: What about the MIC (ec302 (TEM-10) [9]) of the same compound?
Answer: 128 µg/mL

Question: What about the MIC (EC1010 (CMY-6) [10]) of the same compound?
Answer: > 128 µg/mL

Question: What about the MIC (KP1004 (KPC-2) [11]) of the same compound?
Answer: > 128 µg/mL

Question: What about the MIC (KP1005 (CTX-M-14) [12]) of the same compound?
Answer: > 128 µg/mL

Question: And the MIC (KP1009 (CTX-M-15) [13])?
Answer: > 128 µg/mL

Question: What about the MIC (ec308 (SHV-5) [14]) of the same compound?
Answer: > 128 µg/mL

Question: With `C[C@@H](O)[C@H]1C(=O)N2C(C(=O)[O-])=C(SC3Cn4cnc[n+]4C3)[C@H](C)[C@H]12` (some centres unmarked) [Biapenem] as the compound, how does the MIC (KP1086 (OXA-48) [15]) read?
Answer: 16 µg/mL

Question: What about the MIC (PAM1154/KPC-2 [16]) of the same compound?
Answer: 32 µg/mL

Question: And the MIC (PAM1032/KPC-2 [17])?
Answer: 32 µg/mL

Question: And the MIC (KP1004 (KPC-2) [18])?
Answer: 32 µg/mL

Question: With `Nc1nnc(SCC(=O)N[C@H]2CC=C[C@@H]3CC(=O)OB2O3)s1` [Compound 6, 2-(5-AMINO-1,3,4-THIADIAZOL-2-YLTHIO)-N-((2R,6S)-8-OXO-9,10-DIOXA-1-BORABICYCLO[4.3.1]DEC-4-EN-2-YL)ACETAMIDE] as the compound, how does the “MPC@4 aztreonam potentiation” value (ec302 (TEM-10) [19]) read?
Answer: X (X = MPC@4 ≤ 5 μg/mL)

Question: What about the “MPC@1 biapenem potentiation” value (KP1086 (OXA-48) [20]) of the same compound?
Answer: Z (Z = MPC@1 > 20 μg/mL)

Question: What about the “MPC@4 aztreonam potentiation” value (KP1009 (CTX-M-15) [21]) of the same compound?
Answer: X (X = MPC@4 ≤ 5 μg/mL)

Question: What about the Ki (CMY-2) of the same compound?
Answer: < 100 nM

Question: What about the Ki (KPC-2) of the same compound?
Answer: 100 to 1000 nM

Question: And the Ki (OXA-48)?
Answer: 100 to 1000 nM

Question: And the “MPC@4 aztreonam potentiation” value (EC1010 (CMY-6) [22])?
Answer: X (X = MPC@4 ≤ 5 μg/mL)

Question: What about the “MPC@4 aztreonam potentiation” value (KP1005 (CTX-M-14) [23]) of the same compound?
Answer: X (X = MPC@4 ≤ 5 μg/mL)

Question: And the “MPC@4 aztreonam potentiation” value (KP1010 (SHV-12) [24])?
Answer: X (X = MPC@4 ≤ 5 μg/mL)

Question: What about the bioavailability (Oral pharmacokinetics) of the same compound?
Answer: 2 to 4%

Question: What about the Ki (P99) of the same compound?
Answer: < 100 nM

Question: And the “PAM1154/KPC-2 Biapenem MPC64” value (PAM1154/KPC-2 [25])?
Answer: 5

Question: What about the “MPC@4 aztreonam potentiation” value (ECL1002 [26]) of the same compound?
Answer: X (X = MPC@4 ≤ 5 μg/mL)

Question: What about the “MPC@4 tigemonam potentiation” value (ec302 (TEM-10) [27]) of the same compound?
Answer: Y (Y = 5 μg/mL < MPC@4 ≤ 20 μg/mL)

Question: And the “MPC@4 aztreonam potentiation” value (KP1004 (KPC-2) [28])?
Answer: X (X = MPC@4 ≤ 5 μg/mL)

Question: And the “MPC@4 tigemonam potentiation” value (KP1010 (SHV-12) [29])?
Answer: X (key: X = MPC@4 ≤ 5 μg/mL; Y = 5 μg/mL < MPC@4 ≤ 20 μg/mL; Z = MPC@4 > 20 μg/mL)

Question: What about the Ki (SHV-12) of the same compound?
Answer: < 100 nM

Question: What about the Ki (CTX-M-14) of the same compound?
Answer: < 100 nM

Question: And the “MPC@4 tigemonam potentiation” value (ec308 (SHV-5) [30])?
Answer: X (X = MPC@4 ≤ 5 μg/mL)

Question: And the “MPC@4 tigemonam potentiation” value (EC1010 (CMY-6) [31])?
Answer: X (X = MPC@4 ≤ 5 μg/mL)

Question: And the “MPC@4 tigemonam potentiation” value (ECL1002 [32])?
Answer: X (X = MPC@4 ≤ 5 μg/mL)

Question: What about the “PAM1032/KPC-2 Biapenem MPC64” value (PAM1032/KPC-2 [33]) of the same compound?
Answer: 40

Question: What about the “MPC@4 aztreonam potentiation” value (ec308 (SHV-5) [34]) of the same compound?
Answer: X (X = MPC@4 ≤ 5 μg/mL)

Question: And the “MPC@4 tigemonam potentiation” value (KP1009 (CTX-M-15) [35])?
Answer: X (key: X = MPC@4 ≤ 5 μg/mL; Y = 5 μg/mL < MPC@4 ≤ 20 μg/mL; Z = MPC@4 > 20 μg/mL)

Question: And the “MPC@4 tigemonam potentiation” value (KP1005 (CTX-M-14) [36])?
Answer: X (X = MPC@4 ≤ 5 μg/mL)

Question: And the “MPC@1 biapenem potentiation” value (KP1004 (KPC-2) [37])?
Answer: X (X = MPC@1 ≤ 5 μg/mL)
